Source: patent US11419856B2, “Pharmaceutical combinations for use in the treatment of neoplastic diseases” (Basilea Pharmaceutica International AG, priority 2017, dated 2022)

Legend:
[1] = system: MDA-MB-231 xenograft (human triple negative breast cancer); experiment: Antitumor efficacy and induction of cures in the MDA-MB-231 xenograft model (Examples 1A, 1B); format: in vivo, mouse
Protocol: (§1) Female athymic nude mice (Crl:NU(NCr)-Foxnlnu, Charles River) were used when ten weeks old with a body weight (BW) range of 19.7-27.1 g on Day 1 of the study. The animals were fed ad libitum water (reverse osmosis, 1 ppm Cl) and NIH 31 Modified and Irradiated Lab Diet® consisting of 18.0% crude protein, 5.0% crude fat, and 5.0% crude fiber. The mice were housed on irradiated Enrich-o'Cobs™ Laboratory Animal Bedding in static micro-isolators on a 12-hour light cycle at 20-22° C. (68-72° F.) and 40-60% humidity. Charles River Discovery Services North Carolina (CR Discovery Services) specifically complies with the recommendations of the Guide for Care and Use of Laboratory Animals with respect to restraint, husbandry, surgical procedures, feed and fluid regulation, and veterinary care. The animal care and use program at CR Discovery Services is accredited by the Association for Assessment and Accreditation of Laboratory Animal Care International (AAALAC), which assures compliance with accepted standards for the care and use of laboratory animals. These considerations were taken into account in the way that the dosage regimes were designed and implemented.
The human MDA-MB-231 breast adenocarcinoma cells were grown to mid-log phase in RPMI-1640 medium containing 10% fetal bovine serum, 2 mM glutamine, 100 units/mL sodium penicillin G, 25 μg/mL gentamicin, and 100 μg/mL streptomycin sulfate. The tumor cells were cultured in tissue culture flasks in a humidified incubator at 37° C./5% CO2 and 95% air, harvested during exponential growth and resuspended in cold Phosphate-buffered saline (PBS). Each test animal received a subcutaneous (s.c.) injection of 5×10^6 MDA-MB-231 cells (0.1 mL cell suspension) into the right flank, and tumor growth was monitored as the average tumor size approached the target range of 100-150 mm^3. Tumors were measured (mm) in two dimensions using calipers, and volume was calculated using the formula: Tumor Volume (TV) (mm^3)=(width^2×length)/2. Eighteen days after tumor cell implantation, on Day 1 of the study, mice with individual tumor volumes ranging from 75 to 172 mm^3 were randomized into groups of 8-10 animals, with group mean tumor volumes of 114-124 mm^3.
BAL0101553 was dissolved in 0.9% NaCl in water buffered to pH 5 with 1% sodium acetate to yield 2, 2.5 and 3 mg/mL dosing solutions, providing 20, 25 and 30 mg/kg dosages, respectively, in 10 mL/kg dosing volumes. Eribulin (purchased from Eisai Co., Lot. No. 6217, 6288, 6289 and 6309) at 0.5 mg/mL concentration was diluted in saline to yield a 0.01, 0.025 and 0.05 mg/mL dosing solutions, providing 0.1, 0.25 and 0.5 mg/kg dosages, respectively, in a dosing volume of 10 mL/kg.
(§2) Groups of mice (n=8-10) bearing MDA-MB-231 tumors were dosed as outlined in the Tables 1 and 3. All doses were adjusted to 10 mL/kg. The control groups received oral doses of vehicle (pH 5 buffered 0.9% NaCl solution). Eribulin was administered i.v. and BAL101553 orally. When eribulin and BAL0101553 were dosed in combination, Eribulin was administered to all groups first followed by BAL0101553 dosing within 30 minutes of the first regimen.
Body weights were recorded daily for days 1-5 and then twice weekly until the end of the study and tumor volumes were recorded twice weekly until the end of the experiment. These parameters were analyzed and graphically represented by using GraphPad-Prism™ 5 for Windows according to standard procedure. […] Tumor free animals at the end of the study time were assessed for residual MDA-MB-231 tumor cells by pathological methods. Skin and subcutaneous tissue including the tumor cell inoculation site from the flank region were resected, preserved in formalin and embedded in paraffin.

[2] = Tolerability in the MDA-MB-231 xenograft model (body weight, mortalities); settings: for Final body-weight / Body-weight change: mean ± SD
Protocol: as §1, with “The” for “Female athymic nude mice (Crl:NU(NCr)-Foxnlnu, Charles River) were used when ten weeks old with a body weight (BW) range of 19.7-27.1 g on Day 1 of the study. The animals were fed ad libitum water (reverse osmosis, 1 ppm Cl) and NIH 31 Modified and Irradiated Lab Diet® consisting of 18.0% crude protein, 5.0% crude fat, and 5.0% crude fiber. The”
as §2, with “All” for “Groups of mice (n=8-10) bearing MDA-MB-231 tumors were dosed as outlined in the Tables 1 and 3. All”
Body weights were recorded daily for days 1-5 and then twice weekly until the end of the study and tumor volumes were recorded twice weekly until the end of the experiment. These parameters were analyzed and graphically represented by using GraphPad-Prism™ 5 for Windows according to standard procedure. […] Skin and subcutaneous tissue including the tumor cell inoculation site from the flank region were resected, preserved in formalin and embedded in paraffin. Sections of approximately 5 μm were mounted on glass slides and stained with hematoxylin/eosin and were evaluated by a trained pathologist, to identify residual tumor cells at the site of injection, and were being reported as positive for the existence of residual tumor cells or as negative for a complete lack of any evidence of residual tumor cells.

[3] = Day 26, BAL101553 p.o. 20 mg/kg qd D1-D21, 20 mg/kg qd D25-D43
[4] = Day 100 (endpoint), BAL101553 p.o. 20 mg/kg qd D1-D21, 20 mg/kg qd D25-D43
[5] = E1A, Day 25, p.o. 20 mg/kg qd x5/qw D1-D9, 20 mg/kg qd D12-D34
[6] = E1A, Day 25, p.o. 30 mg/kg qd x5/qw D1-D9, 25 mg/kg qd D12-D34
[7] = E1A, Day 85 (endpoint), p.o. 20 mg/kg qd x5/qw D1-D9, 20 mg/kg qd D12-D34
[8] = E1A, Day 85 (endpoint), p.o. 30 mg/kg qd x5/qw D1-D9, 25 mg/kg qd D12-D34
[9] = E1B, Day 26, p.o. 20 mg/kg qd D1-D21, 20 mg/kg qd D25-D43

SMILES: N#CCCNc1nonc1-c1nc2ccccc2n1CC(=O)c1ccc(NC(=O)[C@@H](N)CCCCN)cc1 [BAL101553, (S)-2,6-Diamino-hexanoic acid [4-(2-{2-[4-(2-cyano-ethylamino)-furazan-3-yl]-benzoimidazol-1-yl}-acetyl)-phenyl]-amide]
- # of regressed tumors (total) [1, 3]: 1 (10)
- T/C [1, 3]: 0.12
- # of confirmed cures (total) [1, 4]: 1 (10)
- # of tumors with TV ≤ 4 mm^3 (total) [1, 4]: 0 (10)
- % cures [1, 4]: 10%
- # of regressed tumors (total) [1, 5]: 0 (8)
- T/C [1, 5]: 0.21
- # of regressed tumors (total) [1, 6]: 4 (8)
- T/C [1, 6]: 0.07
- # of confirmed cures (total) [1, 7]: 0 (8)
- # of tumors with TV ≤ 4 mm^3 (total) [1, 7]: 0 (8)
- % cures [1, 7]: 0%
- # of confirmed cures (total) [1, 8]: 0 (8)
- # of tumors with TV ≤ 4 mm^3 (total) [1, 8]: 0 (8)
- % cures [1, 8]: 0%
- Final body-weight [2, 5]: 26.6 ± 1.6 g
- Final body-weight [2, 6]: 25 ± 1.9 g
- T/C (TC-BW, body weight) [2, 5]: 1.02
- T/C (TC-BW, body weight) [2, 6]: 1.00
- Body-weight change ([2]; E1A, day-0 until day-25, p.o. 20 mg/kg qd x5/qw D1-D9, 20 mg/kg qd D12-D34): 2.8 ± 0.7 g
- Body-weight change ([2]; E1A, day-0 until day-25, p.o. 30 mg/kg qd x5/qw D1-D9, 25 mg/kg qd D12-D34): 2.0 ± 0.8 g
- Mortalities ([2]; E1A, p.o. 20 mg/kg qd x5/qw D1-D9, 20 mg/kg qd D12-D34): 0/8
- Final body-weight [2, 9]: 25.9 ± 1.4 g
- T/C (TC-BW, body weight) [2, 9]: 1.04
- Body-weight change ([2]; E1B, day-0 until day-26, p.o. 20 mg/kg qd D1-D21, 20 mg/kg qd D25-D43): 2.6 ± 0.7 g
- Mortalities ([2]; E1B, p.o. 20 mg/kg qd D1-D21, 20 mg/kg qd D25-D43): 0/10
